Source: US20240425523A1, “Compounds for the Degradation of EGFR Kinase” (Beigene Switzerland GMBH, priority 2023, published 2024)

Columns and labels:
Format in all cases: cell-based
[1] = molecular target: T1, p-EGFR L858R (BaF3-L858R cells) (Homo sapiens, UniProt P00533, L858R); test: Cell p-EGFR inhibition assay, HTRF, BaF3-L858R cells; conditions: 16 h treatment; for Imax (%): maximum percentage of pEGFR inhibition; for IC50: pEGFR inhibition
T1 construct: host or cells: BaF3
Procedure, shortened: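 BaF3-L858R cells treated 16 h at 37 °C, 5% CO2 with compound from 10 uM top, 5-fold dilutions, 8 doses, in 0.1% DMSO medium. Lysates read overnight by HTRF p-EGFR antibodies; IC50 fitted to four-parameter curve against DMSO high control.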

[2] = molecular target: p-EGFR Del19/C797S (H1975-clone #23 cells) (Homo sapiens, UniProt P00533); test: Cell p-EGFR inhibition assay, HTRF, H1975-clone#23 (DEL19/C797S) cells; conditions: 16 h treatment; for Imax (%): maximum percentage of pEGFR inhibition; for IC50: pEGFR inhibition
Procedure, shortened: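 Phospho-EGFR read by overnight HTRF on lysates, normalized to DMSO-treated high control; IC50, Hill slope and Imax fitted. Compounds were applied for 16 h (10 uM top, 5-fold steps, 8 doses) to an H1975 single clone carrying only exogenous Del19/C797S EGFR after sgRNA knockout of endogenous copies.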

[3] = molecular target: T2, EGFR L858R (BaF3-L858R cells) (Homo sapiens, UniProt P00533, L858R); test: Cell degradation of EGFR, HTRF assay, BaF3-L858R cells; conditions: 16 h treatment; for DC50: EGFR degradation; for Dmax: maximum percentage of degradation
T2 construct: host or cells: BaF3
Procedure, shortened: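 EGFR L858R levels measured by HTRF antibody pair in lysed BaF3-L858R cells after 16 h compound exposure (8-point 5-fold series from 10 uM final, 37° C). Degradation is relative to DMSO-only cells; DC50 fitted with Hill equation, Dmax taken as the largest percent loss.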

[4] = molecular target: T3, EGFR-L858R/C797S (H1975-clone #8 cells) (Homo sapiens, UniProt P00533, C797S/L858R); test: Cell degradation of EGFR, HTRF assay, H1975-clone#8 (L858R/C797S) cells; conditions: 16 h treatment; for DC50: EGFR degradation; for Dmax: maximum percentage of degradation
T3 construct: expressed in transfected cells; host or cells: H1975 (endogenous EGFR knocked out, clone #8)

| SMILES | Imax (%) [1] [%] | IC50 [1] [nM] | Imax (%) [2] [%] | IC50 [2] [nM] | DC50 [3] [nM] | Dmax [3] [%] | DC50 [4] [nM] | Dmax [4] [%] |
| --- | --- | --- | --- | --- | --- | --- | --- | --- |
| COC[C@H]1CN(c2ccc3c(c2)N2C[C@@H]4CC[C@H](COc5c(c(C)nn5C)-c5cc(cc(C)n5)C(=O)/N=C/2N3)C4)CCN1C1CN(C2CCN(c3cc(F)c([C@H]4CCC(=O)NC4=O)c(F)c3)CC2)C1 [Example 206, (R)-3-(2,6-difluoro-4-(4-(3-((R)-2-(methoxymethyl)-4-((7R,7^3S,E)-1^1,1^32^6-trimethyl-3-oxo-5^2,5^3-dihydro-1^1H,5^1H-9-oxa-4-aza-5(2,1)-benzo[d]imidazola-2(2,4)-pyridina-1(4,5)-pyrazola-7(1,3)-cyclopentanacyclononaphane-5^6-yl)piperazin-1-yl)azetidin-1-yl)piperidin-1-yl)phenyl)piperidine-2,6-dione] | 94.08 | 1.17 | 99.52 | 0.851 | 1.1 | 92.1 | 0.54 | 90.7 |
| COC[C@H]1CN(c2ccc3c(c2)N2C[C@@H]4CC[C@H](COc5c(c(C)nn5C)-c5cc(cc(C)n5)C(=O)/N=C/2N3)C4)CCN1C1CCN(c2ccc(NC3CCC(=O)NC3=O)cc2C)CC1 (stereo partly drawn) [Example 207, 3-((4-(4-((R)-2-(methoxymethyl)-4-((7R,7^3S,E)-1^1,1^3,2^6-trimethyl-3-oxo-5^2,5^3-dihydro-1^1H,5^1H-9-oxa-4-aza-5(2,1)-benzo[d]imidazola-2(2,4)-pyridina-1(4,5)-pyrazola-7(1,3)-cyclopentanacyclononaphane-5^6-yl)piperazin-1-yl)piperidin-1-yl)-3-methylphenyl)amino)piperidine-2,6-dione] | 88.5 | 1.5 | 100.67 | 1.4 | 1.04 | 91.9 | 1.7 | 87.5 |
| COC[C@H]1CN(c2ccc3c(c2)N2C[C@@H]4CC[C@H](COc5c(cnn5C)-c5cc(cc(C)n5)C(=O)/N=C/2N3)C4)CCN1C1CN(C2CCN(c3cc(F)c([C@H]4CCC(=O)NC4=O)c(F)c3)CC2)C1 [Example 208, (R)-3-(4-(4-(3-((R)-4-((7^1R,7^3S,E)-1^1,2^6-dimethyl-3-oxo-5^2,5^3-dihydro-1^1H,5^1H-9-oxa-4-aza-5(2,1)-benzo[d]imidazola-2(2,4)-pyridina-1(4,5)-pyrazola-7(1,3)-cyclopentanacyclononaphane-5^6-yl)-2-(methoxymethyl)piperazin-1-yl)azetidin-1-yl)piperidin-1-yl)-2,6-difluorophenyl)piperidine-2,6-dione] | 91.5 | 1.21 | 99.76 | 3.02 | 0.67 | 91.6 | 1.01 | 70.7 |
| Cc1cc2cc(n1)-c1c(C)nn(C)c1OC[C@H]1CC[C@H](C1)CN1/C(=N/C2=O)Nc2ccc(N3CCN(CC4CN(c5cc(F)c([C@H]6CCC(=O)NC6=O)c(F)c5)C4)[C@@H](CF)C3)cc21 [Example 210, (R)-3-(2,6-difluoro-4-(3-(((R)-2-(fluoromethyl)-4-((7R,7^3S,E)-1^1,1^3,2^6-trimethyl-3-oxo-5^2,5^3-dihydro-1^1H,5^1H-9-oxa-4-aza-5(2,1)-benzo[d]imidazola-2(2,4)-pyridina-1(4,5)-pyrazola-7(1,3)-cyclopentanacyclononaphane-5^6-yl)piperazin-1-yl)methyl)azetidin-1-yl)phenyl)piperidine-2,6-dione] | 89.17 | 1.04 | 99.96 | 1.56 | 0.74 | 90.2 | 3.72 | 86.9 |
| Cc1cc2cc(n1)-c1c(C)nn(C)c1OC[C@H]1CC[C@H](C1)CN1/C(=N/C2=O)Nc2ccc(N3CCN(C4CCN(c5cc(F)c([C@H]6CCC(=O)NC6=O)c(F)c5)CC4)C[C@@H]3CF)cc21 [Example 211, (R)-3-(2,6-difluoro-4-(4-((R)-3-(fluoromethyl)-4-((7R,7^3S,E)-1^1,1^3,2^6-trimethyl-3-oxo-5^2,5^3-dihydro-1^1H,5^1H-9-oxa-4-aza-5(2,1)-benzo[d]imidazola-2(2,4)-pyridina-1(4,5)-pyrazola-7(1,3)-cyclopentanacyclononaphane-5^6-yl)piperazin-1-yl)piperidin-1-yl)phenyl)piperidine-2,6-dione] | 89.34 | 2.05 | 99.96 | 1.6 | 0.73 | 91.3 | 3.07 | 88.8 |
